{"source": "paper PMC6060961", "about": "“Synthesis of unsymmetrical disulfanes bearing 1,2,4-triazine scaffold and their in vitro screening towards anti-breast cancer activity” (Monatshefte Fur Chemie, 2018)", "key": {"[1]": {"system": "MCF-7 human breast cancer cells", "experiment": "Cell viability (MTT) assay, MCF-7", "format": "cell-based", "experimental": "(§1) The viability of MCF-7 breast cancer cells was measured by the method of Carmichael using 3-(4,5-dimethylthiazol-2-yl)-2,5-diphenyltetrazolium (Table 2). In terms of reduction in cell viability, the compounds rank in MCF-7 cells in the order chlorambucil > 4j > 4i > 4h > 4n > 4k > 4l > 4a > 4g > 4b–4f.\n(§2) Cultured normal human skin fibroblasts and MCF-7 human breast cancer cells were maintained in DMEM supplemented with 10% fetal bovine serum (FBS), 50 U/cm^3 penicillin, and 50 μg/cm^3 streptomycin at 37 °C. Cells were cultured in Costar flasks and subconfluent cells were detached with 0.05% trypsin and 0.02% EDTA in calcium-free phosphate-buffered saline, counted in hemocytometers, and plated at 5 × 10^5 cells per well of 6-well plates (Nunc) in 2 cm^3 of growth medium (DMEM without phenol red with 10% CPSR1). Cells reached about 80% of confluency at day 3, and in most cases, such cells were used for the assays.\n(§3) The assay was performed according to the method of Carmichael using 3-(4,5-dimethylthiazole-2-yl)-2,5-diphenyltetrazolium bromide (MTT). Confluent cells cultured for 24 h with various concentrations of studied compounds in 6-well plates were washed three times with PBS and then incubated for 4 h in 1 cm^3 of MTT solution (0.5 mg/cm^3 of PBS) at 37 °C in 5% CO2 in an incubator. The medium was removed and 1 cm^3 of […] HCl in absolute isopropanol was added to the cells attached. Absorbance of converted dye in the living cells was measured at a wavelength of 570 nm. Cell viability of breast cancer cells cultured in the presence of ligands was calculated as percentage of controlled cells."}, "[2]": {"system": "normal human skin fibroblasts", "experiment": "Cell viability (MTT) assay, fibroblasts", "format": "cell-based", "experimental": "as §1, §2, §3"}, "[3]": {"system": "MCF-7 breast cancer cells", "experiment": "DNA synthesis assay ([3H]-thymidine incorporation), MCF-7", "format": "cell-based, human", "experimental": "We studied the effect of compounds 4a–4n and chlorambucil on DNA synthesis in MCF-7 breast cancer cells (Table 3).\nas §2\nMCF-7 cells were seeded in 6-well plates and were incubated with varying concentrations of […] or chlorambucil and 0.5 μCi of [^3H]-thymidine for 24 h at 37 °C [51]. The cells were then harvested by trypsinization, washed with cold phosphate-buffered saline, and centrifuged for 10 min at 1500 g several times (4–5) until the dpm in the washes were similar to the reagent control. Radioactivity was determined by liquid scintillation counting. [^3H]-thymidine uptake was expressed as dpm/well."}, "Fibroblasts": {"system": "Fibroblasts", "experiment": "DNA synthesis assay ([3H]-thymidine incorporation), fibroblasts", "format": "cell-based, human", "conditions": "read-out: IC50 inhibition of [3H]-thymidine incorporation into DNA"}, "[4]": {"system": "human breast cancer cell line (MCF-7 and MDA-MB-231)", "design": "method as in PMID 26133068", "conditions": "cell line not specified (MCF-7 and MDA-MB-231 tested); cited from earlier work"}, "[5]": {"experiment": "Cell viability (MTT) assay, fibroblasts", "format": "cell-based, human", "experimental": "as §1, §2, §3"}, "[6]": {"conditions": "MCF-7 cells, 24 h, mean ± SD of four independent experiments, read-out: IC50 inhibition of [3H]-thymidine incorporation into DNA"}, "[7]": {"conditions": "Fibroblasts, 24 h, mean ± SD of four independent experiments"}, "[8]": {"conditions": "Homo sapiens, MCF7, 24 h, read-out: IC50 cytotoxicity (cell viability, MTT)"}, "[9]": {"conditions": "Homo sapiens, MCF7, MCF-7 cells, 24 h, mean ± SD of four independent experiments, read-out: IC50 inhibition of [3H]-thymidine incorporation into DNA"}, "[10]": {"conditions": "Homo sapiens, Fibroblast, Fibroblasts, 24 h, mean ± SD of four independent experiments"}}, "note": "Where two headings read alike, the source gives them in different places."}
{"compound": "5,6-Diphenyl-1,2,4-triazine-3-yl isobutyl disulfide [Compound 4c]", "values": [{"measurement": "IC50", "setting": "[1]", "result": "> 200", "unit": "µM"}, {"measurement": "IC50", "setting": "[2]", "result": "> 200", "unit": "µM"}, {"measurement": "IC50", "setting": "[3]; [6]", "result": "> 200", "unit": "µM"}, {"measurement": "IC50", "setting": "Fibroblasts; [7]", "result": "> 200", "unit": "µM"}]}
{"compound": "5,6-Diphenyl-1,2,4-triazine-3-yl tert-butyl disulfide [Compound 4d]", "values": [{"measurement": "IC50", "setting": "[1]", "result": "> 200", "unit": "µM"}, {"measurement": "IC50", "setting": "[2]", "result": "> 200", "unit": "µM"}, {"measurement": "IC50", "setting": "[3]; [6]", "result": "> 200", "unit": "µM"}, {"measurement": "IC50", "setting": "Fibroblasts; [7]", "result": "> 200", "unit": "µM"}]}
{"compound": "c1ccc(-c2nnc(SSc3nnc(-c4ccccc4)c(-c4ccccc4)n3)nc2-c2ccccc2)cc1", "note": "[5,5′,6,6′-tetraphenylbis(1,2,4-triazin-3-yl)disulfane]", "values": [{"measurement": "IC50", "setting": "[4]", "result": 25, "unit": "µM"}]}
{"compound": "O=C(O)CCCc1ccc(N(CCCl)CCCl)cc1", "note": "[Chlorambucil, reference compound]", "values": [{"measurement": "IC50", "setting": "[1]; [8]", "result": "97 ± 2", "unit": "µM"}, {"measurement": "IC50 at 24 h", "setting": "[5]; normal human skin fibroblasts, 24 h, mean ± SD of four independent experiments, read-out: IC50 cytotoxicity (cell viability, MTT)", "result": "150 ± 1", "unit": "µM"}, {"measurement": "IC50", "setting": "[3]; Homo sapiens, MCF7, read-out: IC50 inhibition of [3H]-thymidine incorporation into DNA", "result": "47 ± 2", "unit": "µM"}, {"measurement": "IC50", "setting": "Fibroblasts; Homo sapiens, Fibroblast", "result": "120 ± 1", "unit": "µM"}]}
{"compound": "CC(C)SSc1nnc(-c2ccccc2)c(-c2ccccc2)n1", "note": "[Compound 4a, 5,6-Diphenyl-1,2,4-triazine-3-yl isopropyl disulfide]", "values": [{"measurement": "IC50", "setting": "[1]; [8]", "result": "190 ± 2", "unit": "µM"}, {"measurement": "IC50 at 24 h", "setting": "[5]; human", "result": "> 200", "unit": "µM"}, {"measurement": "IC50", "setting": "[3]; [9]", "result": "188 ± 2", "unit": "µM"}, {"measurement": "IC50", "setting": "Fibroblasts; [10]", "result": "> 200", "unit": "µM"}]}
{"compound": "CCCCSSc1nnc(-c2ccccc2)c(-c2ccccc2)n1", "note": "[Compound 4b, 5,6-Diphenyl-1,2,4-triazine-3-yl n-butyl disulfide]", "values": [{"measurement": "IC50", "setting": "[1]; [8]", "result": "> 200", "unit": "µM"}, {"measurement": "IC50 at 24 h", "setting": "[5]; human", "result": "> 200", "unit": "µM"}, {"measurement": "IC50", "setting": "[3]; [9]", "result": "> 200", "unit": "µM"}, {"measurement": "IC50", "setting": "Fibroblasts; [10]", "result": "> 200", "unit": "µM"}]}
{"compound": "CCCCCSSc1nnc(-c2ccccc2)c(-c2ccccc2)n1", "note": "[Compound 4e, 5,6-Diphenyl-1,2,4-triazine-3-yl n-pentyl disulfide]", "values": [{"measurement": "IC50", "setting": "[1]; [8]", "result": "> 200", "unit": "µM"}, {"measurement": "IC50 at 24 h", "setting": "[5]; human", "result": "> 200", "unit": "µM"}, {"measurement": "IC50", "setting": "[3]; [9]", "result": "> 200", "unit": "µM"}, {"measurement": "IC50", "setting": "Fibroblasts; [10]", "result": "> 200", "unit": "µM"}]}
{"compound": "CCCCCCCCCCCCSSc1nnc(-c2ccccc2)c(-c2ccccc2)n1", "note": "[Compound 4f, 5,6-Diphenyl-1,2,4-triazine-3-yl n-dodecyl disulfide]", "values": [{"measurement": "IC50", "setting": "[1]; [8]", "result": "> 200", "unit": "µM"}, {"measurement": "IC50 at 24 h", "setting": "[5]; human", "result": "> 200", "unit": "µM"}, {"measurement": "IC50", "setting": "[3]; [9]", "result": "> 200", "unit": "µM"}, {"measurement": "IC50", "setting": "Fibroblasts; [10]", "result": "> 200", "unit": "µM"}]}
{"compound": "OCCCCCCCCCCCSSc1nnc(-c2ccccc2)c(-c2ccccc2)n1", "note": "[Compound 4g, 5,6-Diphenyl-1,2,4-triazine-3-yl 11-hydroxyundecyl disulfide]", "values": [{"measurement": "IC50", "setting": "[1]; [8]", "result": "197 ± 1", "unit": "µM"}, {"measurement": "IC50 at 24 h", "setting": "[5]; human", "result": "> 200", "unit": "µM"}, {"measurement": "IC50", "setting": "[3]; [9]", "result": "188 ± 1", "unit": "µM"}, {"measurement": "IC50", "setting": "Fibroblasts; [10]", "result": "> 200", "unit": "µM"}]}
{"compound": "c1ccc(SSc2nnc(-c3ccccc3)c(-c3ccccc3)n2)cc1", "note": "[Compound 4h, 5,6-Diphenyl-1,2,4-triazine-3-yl phenyl disulfide]", "values": [{"measurement": "IC50", "setting": "[1]; [8]", "result": "115 ± 2", "unit": "µM"}, {"measurement": "IC50 at 24 h", "setting": "[5]; human", "result": "> 200", "unit": "µM"}, {"measurement": "IC50", "setting": "[3]; [9]", "result": "68 ± 2", "unit": "µM"}, {"measurement": "IC50", "setting": "Fibroblasts; [10]", "result": "> 200", "unit": "µM"}]}
{"compound": "Cc1ccc(SSc2nnc(-c3ccccc3)c(-c3ccccc3)n2)cc1", "note": "[Compound 4i, 5,6-Diphenyl-1,2,4-triazine-3-yl p-tolyl disulfide]", "values": [{"measurement": "IC50", "setting": "[1]; [8]", "result": "108 ± 1", "unit": "µM"}, {"measurement": "IC50 at 24 h", "setting": "[5]; human", "result": "> 200", "unit": "µM"}, {"measurement": "IC50", "setting": "[3]; [9]", "result": "60 ± 2", "unit": "µM"}, {"measurement": "IC50", "setting": "Fibroblasts; [10]", "result": "> 200", "unit": "µM"}]}
{"compound": "COc1ccc(SSc2nnc(-c3ccccc3)c(-c3ccccc3)n2)cc1", "note": "[Compound 4j, 5,6-Diphenyl-1,2,4-triazine-3-yl 4-methoxyphenyl disulfide]", "values": [{"measurement": "IC50", "setting": "[1]; [8]", "result": "102 ± 2", "unit": "µM"}, {"measurement": "IC50 at 24 h", "setting": "[5]; human", "result": "> 200", "unit": "µM"}, {"measurement": "IC50", "setting": "[3]; [9]", "result": "59 ± 2", "unit": "µM"}, {"measurement": "IC50", "setting": "Fibroblasts; [10]", "result": "> 200", "unit": "µM"}]}
{"compound": "Clc1ccc(SSc2nnc(-c3ccccc3)c(-c3ccccc3)n2)cc1", "note": "[Compound 4k, 5,6-Diphenyl-1,2,4-triazine-3-yl 4-chlorophenyl disulfide]", "values": [{"measurement": "IC50", "setting": "[1]; [8]", "result": "121 ± 2", "unit": "µM"}, {"measurement": "IC50 at 24 h", "setting": "[5]; human", "result": "> 200", "unit": "µM"}, {"measurement": "IC50", "setting": "[3]; [9]", "result": "83 ± 1", "unit": "µM"}, {"measurement": "IC50", "setting": "Fibroblasts; [10]", "result": "> 200", "unit": "µM"}]}
{"compound": "O=[N+]([O-])c1ccc(SSc2nnc(-c3ccccc3)c(-c3ccccc3)n2)cc1", "note": "[Compound 4l, 5,6-Diphenyl-1,2,4-triazine-3-yl 4-nitrophenyl disulfide]", "values": [{"measurement": "IC50", "setting": "[1]; [8]", "result": "140 ± 1", "unit": "µM"}, {"measurement": "IC50 at 24 h", "setting": "[5]; human", "result": "> 200", "unit": "µM"}, {"measurement": "IC50", "setting": "[3]; [9]", "result": "142 ± 1", "unit": "µM"}, {"measurement": "IC50", "setting": "Fibroblasts; [10]", "result": "> 200", "unit": "µM"}]}
{"compound": "c1ccc(-c2nnc(SSc3nc4ccccc4s3)nc2-c2ccccc2)cc1", "note": "[Compound 4n, 5,6-Diphenyl-1,2,4-triazine-3-yl benzothiazol-2-yl disulfide]", "values": [{"measurement": "IC50", "setting": "[1]; [8]", "result": "119 ± 2", "unit": "µM"}, {"measurement": "IC50 at 24 h", "setting": "[5]; human", "result": "> 200", "unit": "µM"}, {"measurement": "IC50", "setting": "[3]; [9]", "result": "75 ± 2", "unit": "µM"}, {"measurement": "IC50", "setting": "Fibroblasts; [10]", "result": "> 200", "unit": "µM"}]}
